Assay results published in publication PMC10894229, “Novel antimicrobial peptides against Cutibacterium acnes designed by deep learning” (Scientific Reports, 2024).
Where two headings read alike, the source gives them in different places.

Test system: C. acnes (BNCC 336649)
Details: for Concentration with antimicrobial activity >50%: C. acnes; for Concentration with antimicrobial activity >50% / Category of in vitro test antimicrobial activity against C. acnes: supplementary Table 5; for Antimicrobial activity > 50% against C. acnes: broth microdilution, 48 h, OD 630 nm
Procedure: The strain of C. acnes (BNCC 336649) was cultured in Wilkins-Chalgren Anaerobe Broth (QingDao RiShui Bio-technologies, 11071) at 37 °C under an anaerobic atmosphere performed by a Labiophy HL-B automatic hypoxic workstation (Dalian, Liaoning Province, Labiophy HL-B), inflated with a gas mix of 15% carbon dioxide, 83% nitrogen, and 2% hydrogen.
Logarithmic phase growth bacteria were used for antimicrobial testing.
To determine the MIC values, the broth microdilution method was used. […] Briefly, peptide samples were prepared as a stock solution in water and then diluted. 180 μL of the bacterial suspension (10^7 CFU/mL) and 20 μL of the tested sample were added together into 96-Well Deep Well Plates and incubated 24 h for E. coli and S. aureus or 48 h for C. acnes and C. albicans. For each test, two columns of the plate were kept for sterility control (broth only) and growth control (broth with bacterial inoculums, no antibiotics). The optical density of cultures was measured at 630 nm by a microplate reader (SYNERGY-H1, BioTek, USA) to estimate bacterial growth. All experiments were conducted in triplicate. We used ciprofloxacin (CPFX) as the antibiotic control for antimicrobial testing.

| Sequence | Concentration with antimicrobial activity >50% | Antimicrobial activity > 50% against C. acnes (at 25 µg/mL) | Antimicrobial activity > 50% against C. acnes (at 50 µg/mL) | Antimicrobial activity > 50% against C. acnes (at 100 µg/mL) | Category of in vitro test antimicrobial activity against C. acnes |
| --- | --- | --- | --- | --- | --- |
| AIHKLAHHIAKLAKK [AMP-35] | no | No (A peptide was deemed to have antimicrobial activity if C. acnes growth was inhibited by more than 50% at a given concentration) | No (A peptide was deemed to have antimicrobial activity if C. acnes growth was inhibited by more than 50% at a given concentration) | No (A peptide was deemed to have antimicrobial activity if C. acnes growth was inhibited by more than 50% at a given concentration) | No AMP |
| AKKALKAAAKIIKWL [AMP-19] | 25 µg/mL | Inhibit (A peptide was deemed to have antimicrobial activity if C. acnes growth was inhibited by more than 50% at a given concentration) | Inhibit (A peptide was deemed to have antimicrobial activity if C. acnes growth was inhibited by more than 50% at a given concentration) | Inhibit (A peptide was deemed to have antimicrobial activity if C. acnes growth was inhibited by more than 50% at a given concentration) | Medium AMP |
| ALIKKLERTLRKAI [AMP-37] | no | No (A peptide was deemed to have antimicrobial activity if C. acnes growth was inhibited by more than 50% at a given concentration) | No (A peptide was deemed to have antimicrobial activity if C. acnes growth was inhibited by more than 50% at a given concentration) | No (A peptide was deemed to have antimicrobial activity if C. acnes growth was inhibited by more than 50% at a given concentration) | No AMP |
| CKAVLRWVSRLKKL [AMP-39] | 25 µg/mL | Inhibit (A peptide was deemed to have antimicrobial activity if C. acnes growth was inhibited by more than 50% at a given concentration) | Inhibit (A peptide was deemed to have antimicrobial activity if C. acnes growth was inhibited by more than 50% at a given concentration) | Inhibit (A peptide was deemed to have antimicrobial activity if C. acnes growth was inhibited by more than 50% at a given concentration) | Medium AMP |
| DALRALHHLLKRAL [AMP-42] | no | No (A peptide was deemed to have antimicrobial activity if C. acnes growth was inhibited by more than 50% at a given concentration) | No (A peptide was deemed to have antimicrobial activity if C. acnes growth was inhibited by more than 50% at a given concentration) | No (A peptide was deemed to have antimicrobial activity if C. acnes growth was inhibited by more than 50% at a given concentration) | No AMP |
| FKRLQKLLFTLKQK [AMP-40] | no | No (A peptide was deemed to have antimicrobial activity if C. acnes growth was inhibited by more than 50% at a given concentration) | No (A peptide was deemed to have antimicrobial activity if C. acnes growth was inhibited by more than 50% at a given concentration) | No (A peptide was deemed to have antimicrobial activity if C. acnes growth was inhibited by more than 50% at a given concentration) | No AMP |
| FLGQLKNFFKKLAS [AMP-7] | – | No (A peptide was deemed to have antimicrobial activity if C. acnes growth was inhibited by more than 50% at a given concentration) | Inhibit (A peptide was deemed to have antimicrobial activity if C. acnes growth was inhibited by more than 50% at a given concentration) | Inhibit (A peptide was deemed to have antimicrobial activity if C. acnes growth was inhibited by more than 50% at a given concentration) | Medium AMP |
| FLKKLRTAVLKLTKG [AMP-17] | 25 µg/mL | Inhibit (A peptide was deemed to have antimicrobial activity if C. acnes growth was inhibited by more than 50% at a given concentration) | Inhibit (A peptide was deemed to have antimicrobial activity if C. acnes growth was inhibited by more than 50% at a given concentration) | Inhibit (A peptide was deemed to have antimicrobial activity if C. acnes growth was inhibited by more than 50% at a given concentration) | Medium AMP |
| GFKRIVHRLTKWLA [AMP-11] | 12.5 µg/mL | Inhibit (A peptide was deemed to have antimicrobial activity if C. acnes growth was inhibited by more than 50% at a given concentration) | Inhibit (A peptide was deemed to have antimicrobial activity if C. acnes growth was inhibited by more than 50% at a given concentration) | Inhibit (A peptide was deemed to have antimicrobial activity if C. acnes growth was inhibited by more than 50% at a given concentration) | Strong AMP |
| GIGALVKFLPKLFK [AMP-41] | 25 µg/mL | Inhibit (A peptide was deemed to have antimicrobial activity if C. acnes growth was inhibited by more than 50% at a given concentration) | Inhibit (A peptide was deemed to have antimicrobial activity if C. acnes growth was inhibited by more than 50% at a given concentration) | Inhibit (A peptide was deemed to have antimicrobial activity if C. acnes growth was inhibited by more than 50% at a given concentration) | Medium AMP |
| GKLKKIWKNFGKIIK [AMP-20] | 25 µg/mL | Inhibit (A peptide was deemed to have antimicrobial activity if C. acnes growth was inhibited by more than 50% at a given concentration) | Inhibit (A peptide was deemed to have antimicrobial activity if C. acnes growth was inhibited by more than 50% at a given concentration) | Inhibit (A peptide was deemed to have antimicrobial activity if C. acnes growth was inhibited by more than 50% at a given concentration) | Medium AMP |
| GLTLLKKFLHAAKKF [AMP-23] | 25 µg/mL | Inhibit (A peptide was deemed to have antimicrobial activity if C. acnes growth was inhibited by more than 50% at a given concentration) | Inhibit (A peptide was deemed to have antimicrobial activity if C. acnes growth was inhibited by more than 50% at a given concentration) | Inhibit (A peptide was deemed to have antimicrobial activity if C. acnes growth was inhibited by more than 50% at a given concentration) | Medium AMP |
| GLVSRLRRLVTPLL [AMP-4] | – | No (A peptide was deemed to have antimicrobial activity if C. acnes growth was inhibited by more than 50% at a given concentration) | Inhibit (A peptide was deemed to have antimicrobial activity if C. acnes growth was inhibited by more than 50% at a given concentration) | Inhibit (A peptide was deemed to have antimicrobial activity if C. acnes growth was inhibited by more than 50% at a given concentration) | Medium AMP |
| KAIAALAKKIIKVAK [AMP-24] | no | No (A peptide was deemed to have antimicrobial activity if C. acnes growth was inhibited by more than 50% at a given concentration) | No (A peptide was deemed to have antimicrobial activity if C. acnes growth was inhibited by more than 50% at a given concentration) | No (A peptide was deemed to have antimicrobial activity if C. acnes growth was inhibited by more than 50% at a given concentration) | No AMP |
| KALAATVKKVAKLIK [AMP-34] | no | No (A peptide was deemed to have antimicrobial activity if C. acnes growth was inhibited by more than 50% at a given concentration) | No (A peptide was deemed to have antimicrobial activity if C. acnes growth was inhibited by more than 50% at a given concentration) | No (A peptide was deemed to have antimicrobial activity if C. acnes growth was inhibited by more than 50% at a given concentration) | No AMP |
